Blank lines part the entries; values can stand above or below the compound they belong to. Active and inactive are the calls of the source.
Assays:
Assay type in all cases: functional
[1] = biological target: T1, Hexokinase-1 (Homo sapiens, UniProt P19367); assay: SAR analysis of small molecule inhibitors of hexokinase domain containing I (HKDC1) in the hexokinase 1 selectivity assay. [Related pubchem assays (depositor defined):AID493160, AID493190]
T1 sequence (P19367 whole entry): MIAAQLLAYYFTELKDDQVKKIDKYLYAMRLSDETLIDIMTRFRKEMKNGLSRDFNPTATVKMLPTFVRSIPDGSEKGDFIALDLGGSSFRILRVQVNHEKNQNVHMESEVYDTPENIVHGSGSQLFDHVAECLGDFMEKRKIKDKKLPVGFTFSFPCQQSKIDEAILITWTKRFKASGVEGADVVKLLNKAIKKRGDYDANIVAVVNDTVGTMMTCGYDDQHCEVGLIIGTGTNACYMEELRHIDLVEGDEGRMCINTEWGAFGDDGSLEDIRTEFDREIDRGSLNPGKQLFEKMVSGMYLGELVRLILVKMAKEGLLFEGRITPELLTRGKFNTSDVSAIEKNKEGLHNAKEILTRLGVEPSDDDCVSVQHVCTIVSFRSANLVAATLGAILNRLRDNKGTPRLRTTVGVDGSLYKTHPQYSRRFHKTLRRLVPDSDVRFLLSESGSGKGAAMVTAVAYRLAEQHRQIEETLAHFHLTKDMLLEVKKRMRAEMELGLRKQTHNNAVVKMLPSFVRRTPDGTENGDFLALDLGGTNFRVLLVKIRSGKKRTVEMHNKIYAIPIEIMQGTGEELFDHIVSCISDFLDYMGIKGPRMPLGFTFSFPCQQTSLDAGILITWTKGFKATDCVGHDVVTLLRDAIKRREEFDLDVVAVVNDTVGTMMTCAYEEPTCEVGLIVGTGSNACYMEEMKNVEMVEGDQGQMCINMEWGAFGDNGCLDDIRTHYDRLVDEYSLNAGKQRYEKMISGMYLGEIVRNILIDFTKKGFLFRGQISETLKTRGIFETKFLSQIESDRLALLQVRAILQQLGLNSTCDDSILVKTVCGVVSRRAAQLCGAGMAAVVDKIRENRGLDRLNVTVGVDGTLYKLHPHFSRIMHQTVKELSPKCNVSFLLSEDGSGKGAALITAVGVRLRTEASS

[2] = biological target: T2, Hexokinase HKDC1 (Homo sapiens, UniProt Q2TB90); assay: SAR analysis of small molecule inhibitors of hexokinase domain containing I (HKDC1). [Related pubchem assays (depositor defined):AID493160, AID493190]
T2 sequence (Q2TB90 whole entry): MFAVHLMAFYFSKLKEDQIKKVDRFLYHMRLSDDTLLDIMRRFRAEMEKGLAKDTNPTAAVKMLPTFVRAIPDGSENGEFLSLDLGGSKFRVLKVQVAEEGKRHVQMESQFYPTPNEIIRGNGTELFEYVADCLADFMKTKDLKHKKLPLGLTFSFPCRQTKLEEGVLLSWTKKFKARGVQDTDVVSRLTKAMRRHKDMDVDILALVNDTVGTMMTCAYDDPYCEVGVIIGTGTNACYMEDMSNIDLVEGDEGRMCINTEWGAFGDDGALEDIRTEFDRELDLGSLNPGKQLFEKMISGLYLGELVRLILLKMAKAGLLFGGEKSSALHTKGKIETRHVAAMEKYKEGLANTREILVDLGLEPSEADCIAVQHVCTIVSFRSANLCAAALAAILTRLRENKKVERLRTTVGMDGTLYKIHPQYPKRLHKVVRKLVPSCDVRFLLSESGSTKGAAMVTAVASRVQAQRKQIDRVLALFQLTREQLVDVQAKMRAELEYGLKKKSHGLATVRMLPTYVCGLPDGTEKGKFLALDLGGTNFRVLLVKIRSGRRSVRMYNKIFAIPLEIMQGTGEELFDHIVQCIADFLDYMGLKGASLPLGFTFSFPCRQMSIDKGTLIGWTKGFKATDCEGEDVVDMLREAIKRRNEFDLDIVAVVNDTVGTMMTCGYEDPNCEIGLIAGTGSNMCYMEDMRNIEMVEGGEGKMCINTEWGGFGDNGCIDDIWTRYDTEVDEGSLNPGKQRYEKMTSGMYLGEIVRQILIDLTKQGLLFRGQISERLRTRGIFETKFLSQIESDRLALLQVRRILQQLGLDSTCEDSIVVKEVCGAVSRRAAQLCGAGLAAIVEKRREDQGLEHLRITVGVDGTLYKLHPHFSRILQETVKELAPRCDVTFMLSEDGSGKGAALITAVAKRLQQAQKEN

[3] = biological target: Phospholipase D1 (Homo sapiens, UniProt Q13393); assay: PLD1 inhibitor potency in cells, dose response (AID 602151);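 further: cellular PLD1 assay in Calu-1 cells stimulated with PMA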
Sequence of Phospholipase D1 (Q13393 whole entry): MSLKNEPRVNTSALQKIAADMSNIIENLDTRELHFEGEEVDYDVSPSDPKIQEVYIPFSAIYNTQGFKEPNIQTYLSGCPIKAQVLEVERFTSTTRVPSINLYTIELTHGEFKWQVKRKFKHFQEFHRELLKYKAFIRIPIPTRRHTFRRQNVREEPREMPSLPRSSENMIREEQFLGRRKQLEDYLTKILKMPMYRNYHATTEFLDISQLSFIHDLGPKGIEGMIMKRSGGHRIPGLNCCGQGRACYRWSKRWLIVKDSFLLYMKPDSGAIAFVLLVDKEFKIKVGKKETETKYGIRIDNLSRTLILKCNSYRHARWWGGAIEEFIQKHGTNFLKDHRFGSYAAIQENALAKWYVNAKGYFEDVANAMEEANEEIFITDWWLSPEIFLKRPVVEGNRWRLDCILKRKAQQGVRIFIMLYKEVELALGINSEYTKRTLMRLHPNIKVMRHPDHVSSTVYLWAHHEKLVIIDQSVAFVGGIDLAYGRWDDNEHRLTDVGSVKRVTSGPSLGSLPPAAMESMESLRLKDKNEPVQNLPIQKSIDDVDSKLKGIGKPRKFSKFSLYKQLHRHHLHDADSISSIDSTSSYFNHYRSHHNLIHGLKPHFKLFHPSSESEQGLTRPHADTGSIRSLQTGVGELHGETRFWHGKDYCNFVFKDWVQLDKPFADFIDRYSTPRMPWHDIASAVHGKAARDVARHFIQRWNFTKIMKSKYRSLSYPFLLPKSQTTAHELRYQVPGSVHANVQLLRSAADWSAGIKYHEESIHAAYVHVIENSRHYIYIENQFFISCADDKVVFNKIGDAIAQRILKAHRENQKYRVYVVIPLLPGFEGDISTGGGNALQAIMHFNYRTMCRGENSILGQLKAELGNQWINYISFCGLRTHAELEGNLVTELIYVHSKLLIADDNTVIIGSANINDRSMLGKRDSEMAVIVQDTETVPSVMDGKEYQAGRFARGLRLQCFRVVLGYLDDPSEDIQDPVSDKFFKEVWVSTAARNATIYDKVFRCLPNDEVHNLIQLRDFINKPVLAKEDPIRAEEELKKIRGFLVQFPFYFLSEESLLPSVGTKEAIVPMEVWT

[4] = biological target: Phospholipase D2 (Homo sapiens, UniProt O14939); assay: PLD2 inhibitor potency in cells, dose response (AID 602147);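 further: cellular assay in HEK293 cells overexpressing GFP-tagged PLD2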
Sequence of Phospholipase D2 (O14939 whole entry): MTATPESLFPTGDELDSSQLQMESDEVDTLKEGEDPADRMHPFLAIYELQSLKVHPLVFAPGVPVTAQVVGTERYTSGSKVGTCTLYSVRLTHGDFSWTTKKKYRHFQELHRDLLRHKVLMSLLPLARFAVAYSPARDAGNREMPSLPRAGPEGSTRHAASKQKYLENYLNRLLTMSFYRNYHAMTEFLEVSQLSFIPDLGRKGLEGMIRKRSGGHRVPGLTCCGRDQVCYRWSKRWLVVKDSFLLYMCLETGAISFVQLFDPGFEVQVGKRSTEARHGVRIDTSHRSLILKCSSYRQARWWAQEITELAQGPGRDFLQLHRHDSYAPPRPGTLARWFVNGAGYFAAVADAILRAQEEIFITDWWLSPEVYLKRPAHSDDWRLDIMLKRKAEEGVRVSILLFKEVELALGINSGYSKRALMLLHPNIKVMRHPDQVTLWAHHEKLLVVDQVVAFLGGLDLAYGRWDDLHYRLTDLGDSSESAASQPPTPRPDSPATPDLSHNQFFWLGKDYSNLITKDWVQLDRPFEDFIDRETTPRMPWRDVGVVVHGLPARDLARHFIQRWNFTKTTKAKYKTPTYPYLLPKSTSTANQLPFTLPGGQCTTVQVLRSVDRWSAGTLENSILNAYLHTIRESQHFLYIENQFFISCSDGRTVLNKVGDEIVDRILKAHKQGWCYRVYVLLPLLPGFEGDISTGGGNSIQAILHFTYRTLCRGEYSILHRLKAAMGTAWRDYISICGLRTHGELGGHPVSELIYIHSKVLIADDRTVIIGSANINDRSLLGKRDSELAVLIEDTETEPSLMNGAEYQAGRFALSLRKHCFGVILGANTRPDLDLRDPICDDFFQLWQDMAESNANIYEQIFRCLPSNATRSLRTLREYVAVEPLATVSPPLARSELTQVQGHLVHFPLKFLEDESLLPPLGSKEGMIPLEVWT

[5] = biological target: T3, Caspase-3 (Homo sapiens, UniProt P42574); assay: caspase-3 inhibitors as off-family protease, SAR follow-up, selectivity assay for SENP protease inhibitor project, biochemical, luminescence, set 2 (AID 588599)
T3 sequence (P42574 whole entry): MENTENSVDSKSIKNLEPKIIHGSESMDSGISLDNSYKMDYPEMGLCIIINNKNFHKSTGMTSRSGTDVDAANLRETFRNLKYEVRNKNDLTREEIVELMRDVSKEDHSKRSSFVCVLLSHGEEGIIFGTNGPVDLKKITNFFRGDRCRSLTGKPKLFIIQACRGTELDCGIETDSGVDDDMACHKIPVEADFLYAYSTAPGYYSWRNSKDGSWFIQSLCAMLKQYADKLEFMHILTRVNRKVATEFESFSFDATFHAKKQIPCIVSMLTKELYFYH

[6] = biological target: T4, Sentrin-specific protease 8 (Homo sapiens, UniProt Q96LD8); assay: SENP8 protease inhibitors, SAR follow-up, biochemical, luminescence, set 2 (AID 588601)
T4 sequence (Q96LD8 whole entry): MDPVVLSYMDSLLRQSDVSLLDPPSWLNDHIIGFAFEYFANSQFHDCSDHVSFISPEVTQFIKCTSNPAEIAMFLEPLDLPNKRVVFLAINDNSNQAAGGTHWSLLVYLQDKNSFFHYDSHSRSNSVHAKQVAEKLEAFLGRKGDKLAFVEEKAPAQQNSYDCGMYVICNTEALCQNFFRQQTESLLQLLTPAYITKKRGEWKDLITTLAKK

[7] = biological target: T5, Sentrin-specific protease 7 (Homo sapiens, UniProt Q9BQF6); assay: SENP7 protease inhibitors, SAR follow-up, biochemical, luminescence, set 2 (AID 588600)
T5 sequence (Q9BQF6 whole entry): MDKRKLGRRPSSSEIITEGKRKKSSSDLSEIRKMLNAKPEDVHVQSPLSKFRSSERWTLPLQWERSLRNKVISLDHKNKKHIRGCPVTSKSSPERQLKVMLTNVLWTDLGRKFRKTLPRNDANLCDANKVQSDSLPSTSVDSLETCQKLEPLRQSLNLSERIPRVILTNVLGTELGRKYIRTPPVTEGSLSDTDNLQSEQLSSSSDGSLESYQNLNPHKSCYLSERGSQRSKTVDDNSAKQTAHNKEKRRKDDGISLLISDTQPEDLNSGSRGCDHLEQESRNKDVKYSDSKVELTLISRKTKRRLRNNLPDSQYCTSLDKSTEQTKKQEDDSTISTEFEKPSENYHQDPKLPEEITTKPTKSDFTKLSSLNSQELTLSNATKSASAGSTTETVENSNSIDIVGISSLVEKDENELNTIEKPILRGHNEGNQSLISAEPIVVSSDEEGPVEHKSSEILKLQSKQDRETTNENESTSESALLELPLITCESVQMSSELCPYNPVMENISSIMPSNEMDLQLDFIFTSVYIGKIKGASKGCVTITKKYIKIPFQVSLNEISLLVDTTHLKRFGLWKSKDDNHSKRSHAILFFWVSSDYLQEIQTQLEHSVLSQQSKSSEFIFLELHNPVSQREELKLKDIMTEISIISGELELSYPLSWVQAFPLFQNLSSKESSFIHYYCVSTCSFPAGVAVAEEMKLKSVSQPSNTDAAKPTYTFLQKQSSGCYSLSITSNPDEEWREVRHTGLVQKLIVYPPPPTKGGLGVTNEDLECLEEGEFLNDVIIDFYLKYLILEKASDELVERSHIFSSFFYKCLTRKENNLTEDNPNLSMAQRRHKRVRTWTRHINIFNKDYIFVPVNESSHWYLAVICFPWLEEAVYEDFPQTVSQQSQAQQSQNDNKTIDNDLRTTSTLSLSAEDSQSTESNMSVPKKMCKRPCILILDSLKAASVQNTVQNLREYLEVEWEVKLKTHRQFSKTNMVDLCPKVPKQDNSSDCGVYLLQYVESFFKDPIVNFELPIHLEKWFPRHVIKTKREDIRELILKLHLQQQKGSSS

[8] = biological target: T6, Sentrin-specific protease 6 (Homo sapiens, UniProt Q9GZR1); assay: SENP6 protease inhibitors, SAR follow-up, biochemical, luminescence, set 2 (AID 588598)
T6 sequence (Q9GZR1 whole entry): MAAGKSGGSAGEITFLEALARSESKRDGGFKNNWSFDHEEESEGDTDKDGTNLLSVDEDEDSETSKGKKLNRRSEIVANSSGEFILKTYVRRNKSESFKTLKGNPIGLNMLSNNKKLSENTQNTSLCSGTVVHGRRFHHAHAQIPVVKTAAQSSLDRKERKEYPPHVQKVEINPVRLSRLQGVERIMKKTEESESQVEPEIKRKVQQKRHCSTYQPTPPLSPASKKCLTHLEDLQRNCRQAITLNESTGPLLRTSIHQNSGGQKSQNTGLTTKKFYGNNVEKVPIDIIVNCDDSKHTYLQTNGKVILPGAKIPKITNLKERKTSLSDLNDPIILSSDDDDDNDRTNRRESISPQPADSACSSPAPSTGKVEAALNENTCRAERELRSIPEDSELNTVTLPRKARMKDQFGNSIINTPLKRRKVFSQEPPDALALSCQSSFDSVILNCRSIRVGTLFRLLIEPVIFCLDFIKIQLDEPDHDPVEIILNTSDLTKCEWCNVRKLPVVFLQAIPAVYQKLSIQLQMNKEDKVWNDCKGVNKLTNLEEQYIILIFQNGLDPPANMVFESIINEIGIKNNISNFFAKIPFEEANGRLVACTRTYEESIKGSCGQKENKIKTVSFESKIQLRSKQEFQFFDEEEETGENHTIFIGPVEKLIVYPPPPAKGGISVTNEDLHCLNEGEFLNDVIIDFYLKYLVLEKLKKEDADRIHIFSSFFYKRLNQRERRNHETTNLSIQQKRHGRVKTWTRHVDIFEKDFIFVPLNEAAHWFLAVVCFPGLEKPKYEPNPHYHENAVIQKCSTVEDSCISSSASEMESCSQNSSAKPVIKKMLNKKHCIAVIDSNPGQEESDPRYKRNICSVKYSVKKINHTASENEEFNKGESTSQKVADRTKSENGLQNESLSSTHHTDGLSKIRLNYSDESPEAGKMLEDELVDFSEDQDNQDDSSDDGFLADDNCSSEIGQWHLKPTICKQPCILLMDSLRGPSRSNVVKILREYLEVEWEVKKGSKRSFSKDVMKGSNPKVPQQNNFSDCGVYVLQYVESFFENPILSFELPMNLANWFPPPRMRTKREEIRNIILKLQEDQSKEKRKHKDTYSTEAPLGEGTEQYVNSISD

IC50 [1]: > 80 µM (inactive) | IC50 [2]: > 80 µM (inactive)
SMILES: Nc1n[nH]c(SCC(=O)Nc2cc(S(=O)(=O)N3CCOCC3)ccc2Cl)n1

SMILES: C[C@@H](CN1CCC2(CC1)C(=O)NCN2c1ccc(F)c(F)c1)NC(=O)c1ccc2ccccc2c1
IC50 [3]: 0.1 µM (active) | IC50 [4]: 0.3 µM (active)

IC50 [5]: > 99 µM (inactive) | IC50 [7]: > 99 µM (inactive) | IC50 [8]: > 99 µM (inactive)
SMILES: CS(=O)(=O)c1ccc2nc(NC(=O)c3ccc(OC(F)(F)F)cc3)sc2c1
IC50 [6]: > 99 µM (inactive)

— ChEMBL document CHEMBL1201862, “PubChem BioAssay data set” (2004)
